Assays:
[1] = Loss (consumption, evaporation or other disappearance) of the 2nd phase solvent during the fermentation; parameters: species or system Yarrowia lipolytica; conditions: loss of initial solvent volume, shake plate assay, after 4 days of growth period
Text: As used herein, the term “not disappearing” in connection with the second phase solvents as defined herein means that the same amount of solvent present at the start of the fermentation is still detectable at the end of the fermentation process. A loss or disappearance of solvent might be due to e.g. consumption by the host cell and/or evaporation during the fermentation. The terms “loss” or “disappearance” are used interchangeably herein. Such solvent as used for the process of the present invention is also called a “stable” solvent. Thus, a stable solvent according to the present invention means a loss or disappearance of the solvent during the fermentation in the range of about 20% or less, e.g. in the range of about 20, 15, 10, 8, 5, 3, 2, 1% or even no loss or disappearance of the solvent during the fermentation.
Shake plate assay. Typically, 200 μl of 0.25% yeast extract, 0.5% peptone (0.25X YP) is inoculated with 10 μl of freshly grown Yarrowia and overlaid with 200 μl of solvent. Candida rugosa Lipase (Creative enzymes) was resuspended in PBS and added to the growth media when the carbon source was 2% corn oil. […] The second phase (Drakeol 5, or others listed in table 6) fraction was removed from the shake plate wells and analyzed by UPLC on a normal phase column and/or C4 HPLC, with a photo-diode array detector (see details below). […]

[2] = Density and viscosity in dependence of the solvent used as 2nd phase; assay type: physicochemical
Method: The performance of said 2nd phases were tested with regards to growth, loss (consumption, evaporation or other ways of disappearance) of the solvents during the fermentation and the density and viscosity of the cultivation medium, wherein the test was carried out after 4 days of growth period.

Loss [1]: 100%
Loss ([1]; listed as n-dodecane): completely disappeared
Density [2]: 0.75 g/mL
Viscosity ([2]; measured at 20° C.): 1.34
Compound: CCCCCCCCCCCC [dode, n-dodecane]
